Values joined by “and” are separate entries in the source; they are usually repeats but may differ in a detail not shown here. Equal values may be shown once. Inconclusive results and toxic doses are left out.
Tested on: BDF1 mice, intracerebral B16 melanoma, median survival T/C
Assay: NCI In Vivo Anticancer Drug Screen. Data for tumor model B16 Melanoma (intracerebral) in B6D2F1 (BDF1) mice
Conditions: endpoint: median survival time, higher = longer survival
Description: The antitumor activity of compounds was measured in mice bearing transplantable tumors. Survival or tumor size were measured and the results are expressed as the measurement made in the treated group (T) divided by the measurement made in the vehicle treated control group (C). The tumor model used in this assay is B16 Melanoma (intracerebral) in B6D2F1 (BDF1) mice

[1] = dose: 16.0 mg/kg/injection, schedule: Q01DX005 (ip), vehicle: Klucel (hydroxypropylcellulose) (HPC)
[2] = dose: 32.0 mg/kg/injection, schedule: Q01DX005 (ip), vehicle: Klucel (hydroxypropylcellulose) (HPC)
[3] = dose: 3.12 mg/kg/injection, schedule: Q01DX009 (ip), vehicle: other
[4] = dose: 6.25 mg/kg/injection, schedule: Q01DX009 (ip), vehicle: other
[5] = dose: 12.5 mg/kg/injection, schedule: Q01DX009 (ip), vehicle: other
[6] = dose: 25.0 mg/kg/injection, schedule: Q01DX009 (ip), vehicle: other
[7] = dose: 50.0 mg/kg/injection, schedule: Q01DX009 (ip), vehicle: other

Cc1cn(C2CC(O)C(CO)O2)c(=O)[nH]c1=O (centres undefined)
T/C (dose: 100.0 mg/kg/injection, schedule: Q01DX009 (ip), vehicle: saline with Tween-80): 102 % of control and 109 % of control
T/C (dose: 100.0 mg/kg/injection, schedule: Q01DX009 (ip), vehicle: saline): 100 % of control and 111 % of control
T/C (dose: 200.0 mg/kg/injection, schedule: Q01DX009 (ip), vehicle: saline with Tween-80): 105 % of control
T/C (dose: 200.0 mg/kg/injection, schedule: Q01DX009 (ip), vehicle: saline): 103 % of control and 110 % of control
T/C (dose: 400.0 mg/kg/injection, schedule: Q01DX009 (ip), vehicle: saline with Tween-80): 105 % of control
T/C (dose: 400.0 mg/kg/injection, schedule: Q01DX009 (ip), vehicle: saline): 94 % of control and 101 % of control
T/C (dose: 800.0 mg/kg/injection, schedule: Q01DX009 (ip), vehicle: saline with Tween-80): 124 % of control and 95 % of control
T/C (dose: 800.0 mg/kg/injection, schedule: Q01DX009 (ip), vehicle: saline): 100 % of control and 107 % of control
T/C (dose: 1600.0 mg/kg/injection, schedule: Q01DX009 (ip), vehicle: saline with Tween-80): 92 % of control and 94 % of control

S=c1nc[nH]c2nc[nH]c12
T/C (dose: 11.3 mg/kg/injection, schedule: Q01DX009 (ip), vehicle: other): 91 % of control
T/C (dose: 22.5 mg/kg/injection, schedule: Q01DX009 (ip), vehicle: other): 100 % of control
T/C (dose: 45.0 mg/kg/injection, schedule: Q01DX009 (ip), vehicle: other): 100 % of control

CN(C)/N=N/c1[nH]ncc1C(N)=O
T/C (dose: 64.0 mg/kg/injection, schedule: Q01DX005 (ip), vehicle: saline with Tween-80): 154 % of control
T/C (dose: 128.0 mg/kg/injection, schedule: Q01DX005 (ip), vehicle: saline with Tween-80): 121 % of control

NC(C/[N+]([O-])=N/O)C(=O)O (centres undefined)
T/C (dose: 3.5 mg/kg/injection, schedule: Q01DX009 (ip), vehicle: saline): 97 % of control
T/C (dose: 7.0 mg/kg/injection, schedule: Q01DX009 (ip), vehicle: saline): 87 % of control
T/C (dose: 12.5 mg/kg/injection, schedule: Q01DX009 (ip), vehicle: Klucel (hydroxypropylcellulose) (HPC)): 107 % of control
T/C (dose: 14.0 mg/kg/injection, schedule: Q01DX009 (ip), vehicle: saline): 89 % of control
T/C (dose: 25.0 mg/kg/injection, schedule: Q01DX009 (ip), vehicle: Klucel (hydroxypropylcellulose) (HPC)): 100 % of control
T/C (dose: 56.25 mg/kg/injection, schedule: Q01DX009 (ip), vehicle: saline): 101 % of control

CN(N=O)C(=O)N[C@@H](C=O)[C@@H](O)[C@H](O)[C@H](O)CO
T/C (dose: 0.12 mg/kg/injection, schedule: Q01DX009 (ip), vehicle: citric acid): 101 % of control
T/C (dose: 0.25 mg/kg/injection, schedule: Q01DX009 (ip), vehicle: citric acid): 94 % of control
T/C (dose: 0.5 mg/kg/injection, schedule: Q01DX009 (ip), vehicle: citric acid): 104 % of control
T/C (dose: 1.0 mg/kg/injection, schedule: Q01DX009 (ip), vehicle: citric acid): 102 % of control
T/C (dose: 2.0 mg/kg/injection, schedule: Q01DX009 (ip), vehicle: citric acid): 102 % of control
T/C (dose: 5.0 mg/kg/injection, schedule: Q01DX009 (ip), vehicle: citric acid): 102 % of control
T/C (dose: 10.0 mg/kg/injection, schedule: Q01DX009 (ip), vehicle: citric acid): 108 % of control
T/C (dose: 0.12 micrograms/kg/injection, schedule: Q01DX009 (ip), vehicle: citric acid): 94 % of control

COC(COC(=O)N1CCN(C=O)CC1)C1=C(N2CC2)C(=O)C(C)=C(N2CC2)C1=O (centres undefined)
T/C (dose: 0.75 mg/kg/injection, schedule: Q01DX009 (ip), vehicle: saline): 103 % of control
T/C (dose: 1.5 mg/kg/injection, schedule: Q01DX009 (ip), vehicle: saline): 105 % of control
T/C (dose: 3.0 mg/kg/injection, schedule: Q01DX009 (ip), vehicle: saline): 114 % of control
T/C (dose: 6.0 mg/kg/injection, schedule: Q01DX009 (ip), vehicle: saline): 86 % of control

COc1cc2c(c3c1c(=O)c1ccccc1n3C)C=CC(C)(C)O2
T/C [1]: 121 % of control
T/C [2]: 104 % of control
T/C (dose: 64.0 mg/kg/injection, schedule: Q01DX005 (ip), vehicle: Klucel (hydroxypropylcellulose) (HPC)): 115 % of control

O=C1c2ccccc2C(=O)c2c(NCCNCCO)ccc(NCCNCCO)c21
T/C (dose: 1.0 mg/kg/injection, schedule: Q01DX005 (ip), vehicle: saline with Tween-80): 120 % of control and 111 % of control
T/C (dose: 1.0 mg/kg/injection, schedule: Q01DX005 (ip), vehicle: saline): 99 % of control and 107 % of control
T/C (dose: 2.0 mg/kg/injection, schedule: Q01DX005 (ip), vehicle: saline with Tween-80): 118 % of control and 109 % of control
T/C (dose: 2.0 mg/kg/injection, schedule: Q01DX005 (ip), vehicle: saline): 120 % of control and 99 % of control
T/C (dose: 4.0 mg/kg/injection, schedule: Q01DX005 (ip), vehicle: saline with Tween-80): 109 % of control
T/C (dose: 4.0 mg/kg/injection, schedule: Q01DX005 (ip), vehicle: saline): 104 % of control and 112 % of control
T/C (dose: 4.0 mg/kg/injection, schedule: Q01DX009 (ip), vehicle: saline with Tween-80): 99 % of control and 102 % of control
T/C (dose: 4.0 mg/kg/injection, schedule: Q01DX009 (ip), vehicle: saline): 95 % of control and 103 % of control
T/C (dose: 8.0 mg/kg/injection, schedule: Q01DX009 (ip), vehicle: saline with Tween-80): 93 % of control and 102 % of control
T/C (dose: 8.0 mg/kg/injection, schedule: Q01DX009 (ip), vehicle: saline): 98 % of control and 102 % of control
T/C [1]: 116 % of control
T/C (dose: 16.0 mg/kg/injection, schedule: Q01DX009 (ip), vehicle: saline with Tween-80): 100 % of control
T/C (dose: 16.0 mg/kg/injection, schedule: Q01DX009 (ip), vehicle: saline): 102 % of control and 103 % of control
T/C [2]: 107 % of control
T/C (dose: 32.0 mg/kg/injection, schedule: Q01DX009 (ip), vehicle: saline): 86 % of control

CN(C)N=Nc1ccnc2c(Cl)cccc12
T/C [3]: 110 % of control
T/C [4]: 116 % of control
T/C [5]: 110 % of control
T/C [6]: 108 % of control
T/C [7]: 112 % of control

CCCCCCC(=O)O[C@H]1CC[C@H]2[C@@H]3CCC4=CC(=O)CC[C@]4(C)[C@H]3CC[C@]12C
T/C (dose: 8.0 mg/kg/injection, schedule: Q01DX009 (ip), vehicle: Klucel (hydroxypropylcellulose) (HPC)): 107 % of control
T/C (dose: 16.0 mg/kg/injection, schedule: Q01DX009 (ip), vehicle: Klucel (hydroxypropylcellulose) (HPC)): 98 % of control
T/C (dose: 32.0 mg/kg/injection, schedule: Q01DX009 (ip), vehicle: Klucel (hydroxypropylcellulose) (HPC)): 100 % of control
T/C (dose: 64.0 mg/kg/injection, schedule: Q01DX009 (ip), vehicle: Klucel (hydroxypropylcellulose) (HPC)): 96 % of control
T/C (dose: 128.0 mg/kg/injection, schedule: Q01DX009 (ip), vehicle: Klucel (hydroxypropylcellulose) (HPC)): 103 % of control

CN(C)N=Nc1ccc2c(c1)N(C)c1ccc(Cl)cc1S2
T/C [4]: 97 % of control
T/C [5]: 101 % of control
T/C [6]: 102 % of control
T/C (dose: 100.0 mg/kg/injection, schedule: Q01DX009 (ip), vehicle: other): 112 % of control

CN(C)N=Nc1ccc(Cl)c2ncccc12
T/C [3]: 108 % of control
T/C [4]: 97 % of control
T/C [5]: 100 % of control
T/C [7]: 94 % of control

COc1cc(NS(C)(=O)=O)ccc1Nc1c2cccc(C)c2nc2c(C)cccc12
T/C (dose: 25.0 mg/kg/injection, schedule: Q04DX003 (ip), vehicle: Klucel (hydroxypropylcellulose) (HPC)): 97 % of control
T/C (dose: 25.0 mg/kg/injection, schedule: Q04DX003 (ip), vehicle: saline): 104 % of control
T/C (dose: 50.0 mg/kg/injection, schedule: Q04DX003 (ip), vehicle: Klucel (hydroxypropylcellulose) (HPC)): 94 % of control
T/C (dose: 50.0 mg/kg/injection, schedule: Q04DX003 (ip), vehicle: saline): 116 % of control
T/C (dose: 100.0 mg/kg/injection, schedule: Q04DX003 (ip), vehicle: saline): 95 % of control
T/C (dose: 200.0 mg/kg/injection, schedule: Q04DX003 (ip), vehicle: saline): 104 % of control

Reference: PubChem BioAssay AID196 (DTP/NCI, 2004)
